Test results taken from ChEMBL document CHEMBL4765381, “Neuropeptide FF and Its Receptors: Therapeutic Applications and Ligand Development” (J Med Chem, 2020).
pEC50, pIC50, pKi: −log10 of the molar value. One block for each compound: values may come before it. Square brackets hold non-standard residues; d marks the D form. Peptide text beside a SMILES is read from it. * marks the point of attachment. Desaminotyrosyl = O=C(CCc1ccc(O)cc1)*; NMeF = CN[C@@H](Cc1ccccc1)C(=O)O; Tic = O=C(O)[C@@H]1Cc2ccccc2CN1

What was measured:
[1] = Displacement of [125I][Tyr1]-NPFF from NPFF receptor in rat spinal cord membranes by Cheng-Prusoff analysis; type: cell membranes, Membrane
Mus musculus = test: Reversal of morphine-induced analgesia in icv dosed CDF1 mouse assessed as minimum effective dose measured after 15 mins by tail-flick test; type: functional; conditions: 0.25 h
[2] = target: T1, Neuropeptide FF receptor 1 (Homo sapiens, UniProt Q9GZQ6); test: Agonist activity at NPFFR1 (unknown origin) expressed in mouse NIH3T3 cells by receptor selection and amplification technology assay relative to control; type: cell-based
T1 sequence (Q9GZQ6 whole entry): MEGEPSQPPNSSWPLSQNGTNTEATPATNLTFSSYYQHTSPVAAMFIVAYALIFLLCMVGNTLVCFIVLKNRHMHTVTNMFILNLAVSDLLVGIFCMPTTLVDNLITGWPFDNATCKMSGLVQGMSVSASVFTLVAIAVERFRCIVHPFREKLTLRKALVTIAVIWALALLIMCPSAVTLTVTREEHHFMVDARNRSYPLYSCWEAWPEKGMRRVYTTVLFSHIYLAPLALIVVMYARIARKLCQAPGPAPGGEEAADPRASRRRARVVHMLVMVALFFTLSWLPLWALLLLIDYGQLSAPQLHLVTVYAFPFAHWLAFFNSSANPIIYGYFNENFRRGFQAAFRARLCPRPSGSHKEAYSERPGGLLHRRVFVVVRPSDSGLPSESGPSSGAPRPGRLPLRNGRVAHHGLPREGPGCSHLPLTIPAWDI

[3] = target: T2, Neuropeptide FF receptor 2 (Homo sapiens, UniProt Q9Y5X5); test: Displacement of [125I]-1DMeNPFF from human NPFFR2 expressed in HEK293 cells incubated for 2 hrs by scintillation counting method; type: cell-based
T2 sequence (Q9Y5X5 whole entry): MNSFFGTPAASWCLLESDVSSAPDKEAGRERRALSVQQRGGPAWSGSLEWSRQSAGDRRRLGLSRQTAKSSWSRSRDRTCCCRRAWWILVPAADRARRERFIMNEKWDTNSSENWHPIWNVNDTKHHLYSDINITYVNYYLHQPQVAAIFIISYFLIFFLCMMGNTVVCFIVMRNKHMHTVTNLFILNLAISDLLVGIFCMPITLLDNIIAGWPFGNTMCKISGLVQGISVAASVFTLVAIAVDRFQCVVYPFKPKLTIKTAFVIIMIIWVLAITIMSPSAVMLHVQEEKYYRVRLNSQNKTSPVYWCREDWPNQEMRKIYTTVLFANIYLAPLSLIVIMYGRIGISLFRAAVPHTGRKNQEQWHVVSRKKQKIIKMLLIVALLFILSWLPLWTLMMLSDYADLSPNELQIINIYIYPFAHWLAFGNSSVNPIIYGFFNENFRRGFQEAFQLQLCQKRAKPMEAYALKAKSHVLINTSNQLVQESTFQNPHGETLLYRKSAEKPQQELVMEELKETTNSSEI

[4] = target: T1, Neuropeptide FF receptor 1; test: Displacement of [125I]YVP from human NPFFR1 expressed in HEK293 cells by radioligand binding assay; type: cell-based
[5] = Binding affinity to NPFFR in rat spinal cord; type: tissue-based
[6] = target: T1, Neuropeptide FF receptor 1; test: Displacement of [125I]YVP from human NPFFR1 expressed in CHO cells; type: cell-based
[7] = target: T2, Neuropeptide FF receptor 2; test: Displacement of [125I]Tyr-NPFF from human NPFFR2 expressed in green monkey Cos-1 cells; type: cell-based
[8] = target: T2, Neuropeptide FF receptor 2; test: Displacement of TAMRA-NPFF from human NPFFR2 expressed in CHO-K1 cells preincubated for 15 mins followed by GTPgammaS addition and measured after 15 to 120 mins by competitive binding assay; type: cell-based
[9] = target: T2, Neuropeptide FF receptor 2; test: Agonist activity at human NPFFR2 expressed in CHO cells assessed as inhibition of forskolin-induced intracellular cAMP production incubated for 5 hrs by firefly/renilla luciferase reporter assay; type: functional, cell-based
[10] = target: T2, Neuropeptide FF receptor 2; test: Displacement of [125I]EYF from human NPFFR2 expressed in CHO cells by gamma-counter method; type: cell-based
[11] = target: Neuropeptide FF receptor 1 (Rattus norvegicus, UniProt Q9EP86); test: Displacement of [125I](Tyr)NPF from rat NPFFR1 expressed in rat PC12 cells incubated for 1 hr; type: cell-based, PC-12
Chain of Neuropeptide FF receptor 1 (Rattus norvegicus, UniProt Q9EP86) (Q9EP86 whole entry): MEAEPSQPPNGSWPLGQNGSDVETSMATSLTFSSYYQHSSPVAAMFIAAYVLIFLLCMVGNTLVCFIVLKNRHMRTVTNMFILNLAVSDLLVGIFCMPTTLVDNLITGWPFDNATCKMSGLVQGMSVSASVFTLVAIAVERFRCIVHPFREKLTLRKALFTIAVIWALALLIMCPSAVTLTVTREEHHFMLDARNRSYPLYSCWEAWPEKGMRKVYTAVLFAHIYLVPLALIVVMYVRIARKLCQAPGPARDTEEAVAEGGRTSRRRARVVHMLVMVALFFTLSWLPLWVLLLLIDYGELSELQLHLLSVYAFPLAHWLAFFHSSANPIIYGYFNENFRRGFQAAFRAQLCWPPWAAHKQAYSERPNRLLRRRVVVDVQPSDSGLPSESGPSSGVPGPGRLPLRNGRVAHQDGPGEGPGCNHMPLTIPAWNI

[12] = target: T2, Neuropeptide FF receptor 2; test: Agonist activity at human NPFFR2 expressed in CHO cells assessed as stimulation of [35S]-GTPgammaS binding preincubated for 30 mins followed by [35S]-GTPgammaS stimulation and measured after 30 mins by scintillation counting method; type: functional, cell-based

pKi [1]: 9.70
SMILES: CC(C)C[C@H](NC(=O)[C@@H](N)Cc1ccc(O)cc1)C(=O)N[C@@H](Cc1ccccc1)C(=O)N[C@@H](CCC(N)=O)C(=O)N1CCC[C@H]1C(=O)N[C@@H](CCC(N)=O)C(=O)N[C@@H](CCCN=C(N)N)C(=O)N[C@@H](Cc1ccccc1)C(N)=O (H-YLFQPQRF-NH2)
MEC (Mus musculus): 8.8 nmol

Efficacy [2]: 12%
SMILES: N=C(N)N/N=C/c1ccc(Cl)c(Cl)c1

pKi [3]: 8.49 | pKi [4]: 8.70 | pKi [5]: 10.15
SMILES: CC(C)C[C@H](NC(=O)[C@H](N)Cc1ccc(O)cc1)C(=O)N(C)[C@@H](Cc1ccccc1)C(=O)N[C@@H](CCC(N)=O)C(=O)N1CCC[C@H]1C(=O)N[C@@H](CCC(N)=O)C(=O)N[C@@H](CCCN=C(N)N)C(=O)N[C@@H](Cc1ccccc1)C(N)=O (H-[dY]L[NMeF]QPQRF-NH2)

pKi [1]: 8.92
SMILES: CC(C)C[C@H](NC(=O)[C@@H](N)Cc1ccccc1)C(=O)N[C@@H](Cc1ccccc1)C(=O)N[C@@H](CCC(N)=O)C(=O)NCC(=O)N[C@@H](CCC(N)=O)C(=O)N[C@@H](CCCN=C(N)N)C(=O)N[C@@H](Cc1ccccc1)C(N)=O (H-FLFQGQRF-NH2)
MEC (Mus musculus): 8.8 nmol

pKi [6]: 7.92 | pKi [7]: 6.34
SMILES: NC(N)=NCCC[C@H](NC(=O)C(c1ccccc1)c1ccccc1)C(=O)NCc1ccc(O)cc1

Second part, the compound before the results:

SMILES: COc1cc2c(c(OC)c1OC)-c1c(cc(C)c(C)c1OC)[C@@H](C(=O)Oc1ccccc1)[C@@](C)(O)[C@@H](C)C2
pKi [8]: 8.85 | pEC50 [9]: 5.83

SMILES: CC(C)C[C@H](NC(=O)[C@H](Cc1ccccc1)NC(=O)CCc1ccc(O)cc1)C(=O)N[C@@H](Cc1ccccc1)C(=O)N[C@@H](CCC(N)=O)C(=O)N1CCC[C@H]1C(=O)N[C@@H](CCC(N)=O)C(=O)N[C@@H](CCCN=C(N)N)C(N)=O (Desaminotyrosyl-FLFQPQR-NH2)
pKi [5]: 9.70

SMILES: CC(C)C[C@H](NC(=O)[C@H](CC(N)=O)NC(=O)[C@@H]1CCCN1C(=O)[C@@H](N)C(C)C)C(=O)N1CCC[C@H]1C(=O)N[C@@H](CCC(N)=O)C(=O)N[C@@H](CCCNC(=N)N)C(=O)N[C@@H](Cc1ccccc1)C(N)=O
pKi [10]: 7.64

SMILES: N=C(N)NCCC[C@H](NC(=O)[C@H](Cc1ccccc1)NC(=O)[C@@H]1CCCN1)C(=O)N1Cc2ccccc2C[C@H]1C(N)=O (H-PFR[Tic]-NH2)
pIC50 [11]: 10.00 | pKi [11]: 7.00 | pEC50 [12]: 5.62

SMILES: COc1cc2c(c(OC)c1OC)-c1c(cc3c(c1OC)CC3)[C@@H](C(=O)Oc1ccccc1)[C@@](C)(O)[C@@H](C)C2
pKi [8]: 8.66 | pEC50 [9]: 5.65
